Laboratory results: the NIST ThermoML archive (doi:10.1016/j.jct.2004.11.020)

Assays:
[1] = 308.15 K, 101.33 kPa, Liquid; for speed of sound: Pulse-echo method
[2] = xn = mol fraction of the nth substance listed; details: 308.15 K, 101 kPa, Liquid; for speed of sound: Pulse-echo method

CCC(O)CO (stereo unspecified) [1,2-butanediol]
[1]
Details	mass density [kg/m3]	speed of sound [m/s]	viscosity [mPa·s]
–	988.25	1422.6	30.29

CCC(O)CO (stereo unspecified) [1,2-butanediol] + O=C1CCCN1
[2]
Details	excess molar volume [m3/mol]	speed of sound [m/s]	viscosity [mPa·s]
x2 = 0.027	–	1426.7	28.33
x2 = 0.0473	1.3e-08	–	–
x2 = 0.0512	–	1430.5	27.12
x2 = 0.0621	1.8e-08	–	–
x2 = 0.0786	2.4e-08	–	–
x2 = 0.0797	–	1435.2	25.57
x2 = 0.0977	–	1438.2	24.38
x2 = 0.0991	2.8e-08	–	–
x2 = 0.113	3.2e-08	–	–
x2 = 0.1263	3.6e-08	–	–
x2 = 0.142	4e-08	–	–
x2 = 0.1464	–	1446.3	22.32
x2 = 0.162	4.4e-08	–	–
x2 = 0.1937	–	1454.3	20.82
x2 = 0.1973	4.7e-08	–	–
x2 = 0.2456	5e-08	–	–
x2 = 0.2794	5.2e-08	–	–
x2 = 0.3017	–	1472.5	17.81
x2 = 0.3213	5.3e-08	–	–
x2 = 0.3797	5.2e-08	–	–
x2 = 0.4034	5.1e-08	–	–
x2 = 0.4061	–	1490.3	15.69
x2 = 0.4544	5e-08	–	–
x2 = 0.4753	4.9e-08	–	–
x2 = 0.5014	4.7e-08	–	–
x2 = 0.5017	–	1507.5	14.09
x2 = 0.5226	4.4e-08	–	–
x2 = 0.5643	4.1e-08	–	–
x2 = 0.5966	3.8e-08	–	–
x2 = 0.5983	–	1524.7	12.68
x2 = 0.6244	3.6e-08	–	–
x2 = 0.6571	3.3e-08	–	–
x2 = 0.688	2.9e-08	–	–
x2 = 0.7038	–	1543.6	11.52
x2 = 0.71	2.6e-08	–	–
x2 = 0.7348	2.4e-08	–	–
x2 = 0.7619	2e-08	–	–
x2 = 0.7843	1.7e-08	–	–
x2 = 0.798	–	1561	10.78
x2 = 0.8061	1.4e-08	–	–
x2 = 0.8374	1.2e-08	–	–
x2 = 0.8484	–	1570.6	10.26
x2 = 0.8607	1.1e-08	–	–
x2 = 0.8753	1e-08	–	–
x2 = 0.8878	9e-09	–	–
x2 = 0.9038	–	1580.6	9.435
x2 = 0.9039	8e-09	–	–
x2 = 0.924	7e-09	–	–
x2 = 0.9319	–	1586.6	9.291
x2 = 0.9469	6e-09	–	–
x2 = 0.9512	–	1590.1	9.015
x2 = 0.9599	5e-09	–	–
x2 = 0.9738	–	1594.7	8.969
x2 = 0.9885	3e-09	–	–
x2 = 0.9955	2e-09	–	–

CC(O)CCO (stereo unspecified) [1,3-butanediol]
[1]
Details	mass density [kg/m3]	speed of sound [m/s]	viscosity [mPa·s]
–	991.28	1496	54.24

CC(O)CCO (stereo unspecified) [1,3-butanediol] + O=C1CCCN1
[2]
Details	excess molar volume [m3/mol]	speed of sound [m/s]	viscosity [mPa·s]
x2 = 0.0122	2e-09	–	–
x2 = 0.0261	–	1498	51.57
x2 = 0.0368	8e-09	–	–
x2 = 0.0526	–	1500.5	46.61
x2 = 0.055	2.3e-08	–	–
x2 = 0.0755	–	1502.8	44.87
x2 = 0.0812	3.4e-08	–	–
x2 = 0.0939	4.6e-08	–	–
x2 = 0.1	–	1504.8	40.88
x2 = 0.1079	5.5e-08	–	–
x2 = 0.1227	5.9e-08	–	–
x2 = 0.1447	6.3e-08	–	–
x2 = 0.1543	–	1509.2	36.15
x2 = 0.1594	6.7e-08	–	–
x2 = 0.1843	8.2e-08	–	–
x2 = 0.2041	–	1513.2	31.48
x2 = 0.2174	9.5e-08	–	–
x2 = 0.2396	1.02e-07	–	–
x2 = 0.2586	1.16e-07	–	–
x2 = 0.2859	1.25e-07	–	–
x2 = 0.3003	–	1521.1	26.19
x2 = 0.3054	1.31e-07	–	–
x2 = 0.3436	1.38e-07	–	–
x2 = 0.3606	1.42e-07	–	–
x2 = 0.3817	1.46e-07	–	–
x2 = 0.3932	–	1529.1	21.54
x2 = 0.4337	1.48e-07	–	–
x2 = 0.4571	1.49e-07	–	–
x2 = 0.4815	1.49e-07	–	–
x2 = 0.4985	–	1539	17.82
x2 = 0.519	1.48e-07	–	–
x2 = 0.5798	1.45e-07	–	–
x2 = 0.5931	1.41e-07	–	–
x2 = 0.5936	1.39e-07	–	–
x2 = 0.6015	1.38e-07	–	–
x2 = 0.603	–	1549	15.46
x2 = 0.6087	1.37e-07	–	–
x2 = 0.6204	1.33e-07	–	–
x2 = 0.6319	1.32e-07	–	–
x2 = 0.6419	1.32e-07	–	–
x2 = 0.6744	1.28e-07	–	–
x2 = 0.6903	1.22e-07	–	–
x2 = 0.6985	–	1559.4	13.17
x2 = 0.705	1.2e-07	–	–
x2 = 0.7245	1.15e-07	–	–
x2 = 0.7372	1.15e-07	–	–
x2 = 0.7679	1.07e-07	–	–
x2 = 0.7781	9.8e-08	–	–
x2 = 0.7935	–	1570.9	11.85
x2 = 0.7976	9.2e-08	–	–
x2 = 0.8132	8.3e-08	–	–
x2 = 0.8358	7.3e-08	–	–
x2 = 0.839	–	1576.8	10.81
x2 = 0.8994	–	1585.1	9.984
x2 = 0.9271	–	1589	9.739
x2 = 0.947	–	1592.3	9.44
x2 = 0.9774	–	1596.3	9.15

OCCCCO [1,4-butanediol]
[1]
Details	mass density [kg/m3]	speed of sound [m/s]	viscosity [mPa·s]
–	1003.95	1577.8	47.38

OCCCCO [1,4-butanediol] + O=C1CCCN1
[2]
Details	excess molar volume [m3/mol]	speed of sound [m/s]	viscosity [mPa·s]
x2 = 0.0144	-1e-09	–	–
x2 = 0.0265	–	1579.3	44.47
x2 = 0.0335	-2e-09	–	–
x2 = 0.0524	–	1580.6	42.37
x2 = 0.0631	-5e-09	–	–
x2 = 0.0746	–	1581.5	40.73
x2 = 0.0859	-7e-09	–	–
x2 = 0.099	–	1582.3	39.16
x2 = 0.1034	-1.2e-08	–	–
x2 = 0.1244	-1.6e-08	–	–
x2 = 0.133	-1.8e-08	–	–
x2 = 0.1495	-2.2e-08	–	–
x2 = 0.1515	–	1583.7	35.63
x2 = 0.1707	-2.4e-08	–	–
x2 = 0.1835	-2.6e-08	–	–
x2 = 0.1968	-2.7e-08	–	–
x2 = 0.197	–	1585.2	32.87
x2 = 0.2205	-2.8e-08	–	–
x2 = 0.2428	-2.9e-08	–	–
x2 = 0.2649	-2.7e-08	–	–
x2 = 0.2863	-2.6e-08	–	–
x2 = 0.2914	–	1587.8	27.93
x2 = 0.3121	-2.6e-08	–	–
x2 = 0.3339	-2.2e-08	–	–
x2 = 0.3582	-2e-08	–	–
x2 = 0.384	-1.5e-08	–	–
x2 = 0.3911	–	1589.6	23.57
x2 = 0.4202	-1.1e-08	–	–
x2 = 0.4438	-9e-09	–	–
x2 = 0.4533	–	1590.3	–
x2 = 0.4656	-7e-09	–	–
x2 = 0.4771	-4e-09	–	–
x2 = 0.4954	-2e-09	–	–
x2 = 0.5159	-2e-09	–	–
x2 = 0.5237	–	1591.3	19.22
x2 = 0.527	0	–	–
x2 = 0.5409	1e-09	–	–
x2 = 0.5644	4e-09	–	–
x2 = 0.5753	6e-09	–	–
x2 = 0.5886	7e-09	–	–
x2 = 0.5997	–	1592.6	17.1
x2 = 0.6032	8e-09	–	–
x2 = 0.6155	1e-08	–	–
x2 = 0.6273	1.3e-08	–	–
x2 = 0.6452	2e-08	–	–
x2 = 0.6685	2.2e-08	–	–
x2 = 0.6788	2.3e-08	–	–
x2 = 0.6904	–	1593.7	14.81
x2 = 0.6925	2.4e-08	–	–
x2 = 0.7159	2.5e-08	–	–
x2 = 0.7338	2.6e-08	–	–
x2 = 0.7494	2.7e-08	–	–
x2 = 0.7878	–	1595	12.92
x2 = 0.8877	–	1596.8	10.74
x2 = 0.9305	–	1598	10.14
x2 = 0.9481	–	1598.5	9.772
x2 = 0.9741	–	1599.2	9.275

CC(O)C(C)O (stereo unspecified) [2,3-butanediol]
[1]
Details	mass density [kg/m3]	speed of sound [m/s]	viscosity [mPa·s]
–	990.72	1456.6	51.38

CC(O)C(C)O (stereo unspecified) [2,3-butanediol] + O=C1CCCN1
[2]
Details	excess molar volume [m3/mol]	speed of sound [m/s]	viscosity [mPa·s]
x2 = 0.0199	1.9e-08	–	–
x2 = 0.0255	–	1458.7	46.85
x2 = 0.0339	3.3e-08	–	–
x2 = 0.0483	4.5e-08	–	–
x2 = 0.0507	–	1460.7	41.26
x2 = 0.0634	5.4e-08	–	–
x2 = 0.0737	6e-08	–	–
x2 = 0.0765	–	1463	39.43
x2 = 0.0885	7.5e-08	–	–
x2 = 0.1001	–	1466.3	37.32
x2 = 0.1008	8.2e-08	–	–
x2 = 0.1118	8.7e-08	–	–
x2 = 0.118	9.3e-08	–	–
x2 = 0.1313	9.9e-08	–	–
x2 = 0.1447	1.06e-07	–	–
x2 = 0.1489	–	1470.5	32.26
x2 = 0.1571	1.12e-07	–	–
x2 = 0.1702	1.17e-07	–	–
x2 = 0.185	1.29e-07	–	–
x2 = 0.1941	–	1475.2	28.87
x2 = 0.2191	1.39e-07	–	–
x2 = 0.2418	1.48e-07	–	–
x2 = 0.2675	1.54e-07	–	–
x2 = 0.2854	1.59e-07	–	–
x2 = 0.2955	–	1488.2	23.79
x2 = 0.3058	1.63e-07	–	–
x2 = 0.3226	1.67e-07	–	–
x2 = 0.3312	1.68e-07	–	–
x2 = 0.3459	1.71e-07	–	–
x2 = 0.3589	1.72e-07	–	–
x2 = 0.383	1.72e-07	–	–
x2 = 0.3899	–	1500.7	19.82
x2 = 0.3973	1.72e-07	–	–
x2 = 0.4043	1.73e-07	–	–
x2 = 0.4156	1.72e-07	–	–
x2 = 0.4506	1.71e-07	–	–
x2 = 0.4667	1.7e-07	–	–
x2 = 0.4926	1.69e-07	–	–
x2 = 0.5097	1.7e-07	–	–
x2 = 0.5261	1.7e-07	–	–
x2 = 0.5294	–	1520.3	16.06
x2 = 0.5431	1.67e-07	–	–
x2 = 0.5651	1.68e-07	–	–
x2 = 0.5844	1.65e-07	–	–
x2 = 0.5898	–	1529.2	14.65
x2 = 0.6052	1.6e-07	–	–
x2 = 0.6266	1.58e-07	–	–
x2 = 0.6501	1.52e-07	–	–
x2 = 0.6693	1.51e-07	–	–
x2 = 0.6894	1.45e-07	–	–
x2 = 0.6978	–	1546.9	12.54
x2 = 0.8089	–	1565.1	11.22
x2 = 0.8587	–	1573.7	10.53
x2 = 0.9067	–	1582	9.623
x2 = 0.9497	–	1590.4	9.337
x2 = 0.9702	–	1594.2	9.114

O=C1CCCN1 [2-pyrrolidinone]
[1]
Details	mass density [kg/m3]	speed of sound [m/s]	viscosity [mPa·s]
–	1097.14	1600	8.922
